Laboratory results from patent US20180193332A1, “LOW-TEMPERATURE STABLE OPIOID ANTAGONIST SOLUTIONS” (priority 2017, published 2018).
Structures can show the parent of a compound that is named as a salt.

How the values were obtained:
[1] = Naloxone HCl precipitation after freeze/thaw; type: physicochemical
Excerpt: However, the solution remained opaque when thawed, and precipitation was evident. […] The precipitate could not be re-dissolved in solution following sonication. […]

[2] = Naloxone stability (visual precipitation) during storage at 4° C.; type: physicochemical
[3] = per 100 mL: EDTA-Na2 0 mg, PG 5% w/v
[4] = per 100 mL: EDTA-Na2 0 mg, PG 10% w/v
[5] = per 100 mL: EDTA-Na2 0 mg, PG 20% w/v
[6] = per 100 mL: EDTA-Na2 100 mg, PG 5% w/v
[7] = per 100 mL: EDTA-Na2 100 mg, PG 10% w/v
[8] = per 100 mL: EDTA-Na2 100 mg, PG 20% w/v

## C=CCN1CC[C@]23c4c5ccc(O)c4O[C@H]2C(=O)CC[C@@]3(O)[C@H]1C5 [naloxone HCl]
[1]; per mL: NaCl 3.7 mg, EDTA-Na2 2.0 mg, PG 20% w/v, EtOH 0% w/v, 1 freeze/thaw cycle
  Naloxone precipitation?: yes
[1]; per mL: NaCl 7.4 mg, EDTA-Na2 0.0 mg, PG 5% w/v, EtOH 0% w/v, 3 freeze/thaw cycles
  Naloxone precipitation?: No
[1]; per mL: NaCl 7.4 mg, EDTA-Na2 0.0 mg, PG 10% w/v, EtOH 0% w/v, 3 freeze/thaw cycles
  Naloxone precipitation?: no
[1]; per mL: NaCl 7.4 mg, EDTA-Na2 0.0 mg, PG 20% w/v, EtOH 0% w/v, 3 freeze/thaw cycles
  Naloxone precipitation?: no
[1]; per mL: NaCl 7.4 mg, EDTA-Na2 1.0 mg, PG 5% w/v, EtOH 0% w/v, 3 freeze/thaw cycles
  Naloxone precipitation?: no
[1]; per mL: NaCl 7.4 mg, EDTA-Na2 1.0 mg, PG 10% w/v, EtOH 0% w/v, 3 freeze/thaw cycles
  Naloxone precipitation?: no
[1]; per mL: NaCl 7.4 mg, EDTA-Na2 1.0 mg, PG 20% w/v, EtOH 0% w/v, 4 freeze/thaw cycles
  Naloxone precipitation?: no
[1]; per mL: NaCl 7.4 mg, EDTA-Na2 1.0 mg, PG 20% w/v, EtOH 0% w/v, 7 freeze/thaw cycles
  Naloxone precipitation?: no
[1]; per mL: NaCl 7.4 mg, EDTA-Na2 2.0 mg, PG 10% w/v, EtOH 0% w/v, 1 freeze/thaw cycle
  Naloxone precipitation?: yes
[1]; per mL: NaCl 7.4 mg, EDTA-Na2 2.0 mg, PG 20% w/v, EtOH 0% w/v, 1 freeze/thaw cycle
  Naloxone precipitation?: yes
[1]; per mL: NaCl 7.4 mg, EDTA-Na2 2.0 mg, PG 20% w/v, EtOH 2% w/v, 1 freeze/thaw cycle
  Naloxone precipitation?: yes
[1]; per mL: NaCl 7.4 mg, EDTA-Na2 2.0 mg, PG 20% w/v, EtOH 5% w/v, 1 freeze/thaw cycle
  Naloxone precipitation?: yes
[1]; per mL: NaCl 7.4 mg, EDTA-Na2 2.0 mg, PG 20% w/v, EtOH 10% w/v, 1 freeze/thaw cycle
  Naloxone precipitation?: yes
[1]; per mL: NaCl 7.4 mg, EDTA-Na2 2.0 mg, PG 30% w/v, EtOH 0% w/v, 1 freeze/thaw cycle
  Naloxone precipitation?: yes

## C=CCN1CC[C@]23c4c5ccc(O)c4O[C@H]2C(=O)CC[C@@]3(O)[C@H]1C5 [Naloxone]
[2]; [3]
  Observed naloxone precipitation 24 days: No
  Observed naloxone precipitation 35 days: No
  Observed naloxone precipitation 53 days: No
[2]; [4]
  Observed naloxone precipitation 24 days: No
  Observed naloxone precipitation 35 days: No
  Observed naloxone precipitation 53 days: No
[2]; [5]
  Observed naloxone precipitation 24 days: No
  Observed naloxone precipitation 35 days: No
  Observed naloxone precipitation 53 days: No
[2]; [6]
  Observed naloxone precipitation 24 days: No
  Observed naloxone precipitation 35 days: No
  Observed naloxone precipitation 53 days: No
[2]; [7]
  Observed naloxone precipitation 24 days: No
  Observed naloxone precipitation 35 days: No
  Observed naloxone precipitation 53 days: No and Slight
[2]; [8]
  Observed naloxone precipitation 24 days: No and Slight
  Observed naloxone precipitation 35 days: No and Yes
  Observed naloxone precipitation 53 days: No and Yes
